Data as given in BindingDB's records for doi:10.1016/0024-3205(89)90523-7 (Nida Addiction Research Center, 1989).
Values joined by “and” are separate entries in the source; they are usually repeats but may differ in a detail not shown here. Equal values may be shown once.

Tests used:
[1] = target: 5-hydroxytryptamine receptor 2A (Rattus norvegicus, UniProt P14842)
[2] = target: Sodium-dependent dopamine transporter (Rattus norvegicus, UniProt P23977)
D(2) dopamine receptor = D(2) dopamine receptor (Rattus norvegicus, UniProt P61169)
[3] = target: T1, Alpha-1A adrenergic receptor (Rattus norvegicus, UniProt P43140)
T1 sequence (P43140 whole entry): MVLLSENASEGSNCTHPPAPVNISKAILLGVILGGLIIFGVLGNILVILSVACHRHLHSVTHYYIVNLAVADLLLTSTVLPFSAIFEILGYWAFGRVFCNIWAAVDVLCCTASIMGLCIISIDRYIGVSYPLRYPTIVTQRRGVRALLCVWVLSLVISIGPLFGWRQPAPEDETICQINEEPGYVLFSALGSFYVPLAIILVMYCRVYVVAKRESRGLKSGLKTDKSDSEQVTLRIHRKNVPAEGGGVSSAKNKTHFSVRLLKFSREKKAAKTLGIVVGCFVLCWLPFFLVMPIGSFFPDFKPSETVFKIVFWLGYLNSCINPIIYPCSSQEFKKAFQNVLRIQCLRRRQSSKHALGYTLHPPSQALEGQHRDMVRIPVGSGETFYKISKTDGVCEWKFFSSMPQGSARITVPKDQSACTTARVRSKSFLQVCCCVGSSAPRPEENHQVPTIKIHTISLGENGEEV

[4] = target: T2, Muscarinic acetylcholine receptor M2 (Rattus norvegicus, UniProt P10980)
T2 sequence (P10980 whole entry): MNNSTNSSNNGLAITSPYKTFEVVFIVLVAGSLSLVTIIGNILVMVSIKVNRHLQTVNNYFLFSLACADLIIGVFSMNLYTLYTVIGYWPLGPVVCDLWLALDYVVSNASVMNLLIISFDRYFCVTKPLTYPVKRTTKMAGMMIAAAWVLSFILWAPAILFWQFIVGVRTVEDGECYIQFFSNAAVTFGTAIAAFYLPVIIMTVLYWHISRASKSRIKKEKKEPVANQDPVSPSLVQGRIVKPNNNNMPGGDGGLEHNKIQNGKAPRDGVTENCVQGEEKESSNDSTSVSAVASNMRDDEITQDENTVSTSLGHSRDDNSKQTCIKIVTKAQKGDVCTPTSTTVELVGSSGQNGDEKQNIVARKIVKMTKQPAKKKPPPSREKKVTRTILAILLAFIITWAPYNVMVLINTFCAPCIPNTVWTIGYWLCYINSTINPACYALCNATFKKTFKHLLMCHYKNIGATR

D(1A) dopamine receptor = D(1A) dopamine receptor (Rattus norvegicus, UniProt P18901)
[5] = target: Norepinephrine transporter (Rattus norvegicus, UniProt Q9JIA2)

D(2) dopamine receptor, sequence (P61169 whole entry): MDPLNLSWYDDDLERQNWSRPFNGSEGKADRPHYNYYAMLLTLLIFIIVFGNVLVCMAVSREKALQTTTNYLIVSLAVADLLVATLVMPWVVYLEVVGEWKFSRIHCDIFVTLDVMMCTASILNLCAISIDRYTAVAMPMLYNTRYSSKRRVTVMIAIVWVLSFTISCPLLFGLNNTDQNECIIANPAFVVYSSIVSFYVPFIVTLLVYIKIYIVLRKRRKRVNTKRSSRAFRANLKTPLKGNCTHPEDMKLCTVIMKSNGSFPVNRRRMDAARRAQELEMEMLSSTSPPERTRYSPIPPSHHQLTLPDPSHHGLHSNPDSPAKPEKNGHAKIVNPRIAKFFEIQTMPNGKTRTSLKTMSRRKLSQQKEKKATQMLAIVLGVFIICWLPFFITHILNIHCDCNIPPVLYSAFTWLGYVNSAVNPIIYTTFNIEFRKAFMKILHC
5-hydroxytryptamine receptor 2A, sequence (P14842 whole entry): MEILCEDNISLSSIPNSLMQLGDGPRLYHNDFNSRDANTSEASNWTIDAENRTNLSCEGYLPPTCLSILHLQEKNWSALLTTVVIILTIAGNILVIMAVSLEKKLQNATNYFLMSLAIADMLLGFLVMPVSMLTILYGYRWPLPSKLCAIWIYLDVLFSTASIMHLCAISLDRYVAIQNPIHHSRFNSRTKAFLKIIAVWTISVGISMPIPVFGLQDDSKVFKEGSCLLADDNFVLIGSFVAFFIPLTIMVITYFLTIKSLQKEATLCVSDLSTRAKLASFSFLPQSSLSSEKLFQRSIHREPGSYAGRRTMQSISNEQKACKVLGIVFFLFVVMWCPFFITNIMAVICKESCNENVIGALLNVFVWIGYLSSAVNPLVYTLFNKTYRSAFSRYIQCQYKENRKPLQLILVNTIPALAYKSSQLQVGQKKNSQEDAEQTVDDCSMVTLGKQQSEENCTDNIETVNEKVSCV
D(1A) dopamine receptor, sequence (P18901 whole entry): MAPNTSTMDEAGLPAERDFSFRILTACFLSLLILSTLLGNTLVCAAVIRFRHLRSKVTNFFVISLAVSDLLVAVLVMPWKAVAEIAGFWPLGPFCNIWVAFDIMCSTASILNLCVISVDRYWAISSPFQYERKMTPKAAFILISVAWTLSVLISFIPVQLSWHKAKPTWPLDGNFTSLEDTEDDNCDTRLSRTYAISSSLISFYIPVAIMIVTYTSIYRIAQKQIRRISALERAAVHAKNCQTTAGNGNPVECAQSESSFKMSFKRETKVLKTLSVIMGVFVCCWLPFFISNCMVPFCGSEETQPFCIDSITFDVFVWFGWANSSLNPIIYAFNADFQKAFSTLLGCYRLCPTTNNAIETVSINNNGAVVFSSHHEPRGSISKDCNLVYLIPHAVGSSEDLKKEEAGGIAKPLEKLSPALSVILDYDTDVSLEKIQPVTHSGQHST
Sodium-dependent dopamine transporter, sequence (P23977 whole entry): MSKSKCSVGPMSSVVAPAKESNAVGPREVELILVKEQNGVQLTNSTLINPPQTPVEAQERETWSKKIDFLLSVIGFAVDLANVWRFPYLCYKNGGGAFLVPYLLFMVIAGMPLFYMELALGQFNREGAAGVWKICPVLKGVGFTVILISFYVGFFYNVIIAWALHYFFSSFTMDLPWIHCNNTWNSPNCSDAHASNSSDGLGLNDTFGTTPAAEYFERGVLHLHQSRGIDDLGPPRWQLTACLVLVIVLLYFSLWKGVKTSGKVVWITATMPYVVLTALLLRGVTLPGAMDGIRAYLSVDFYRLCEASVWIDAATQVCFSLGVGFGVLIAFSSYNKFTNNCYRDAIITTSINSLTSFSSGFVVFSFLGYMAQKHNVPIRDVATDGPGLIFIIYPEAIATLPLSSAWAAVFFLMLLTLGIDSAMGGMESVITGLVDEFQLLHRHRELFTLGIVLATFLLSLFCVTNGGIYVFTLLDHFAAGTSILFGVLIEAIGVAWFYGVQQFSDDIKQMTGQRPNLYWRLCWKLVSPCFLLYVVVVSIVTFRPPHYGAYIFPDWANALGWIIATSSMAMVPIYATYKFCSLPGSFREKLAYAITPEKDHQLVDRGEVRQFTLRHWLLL

## CNc1cc(OC)c(C(=O)NCCN(C)Cc2ccc(I)cc2)cc1Cl [CAS_130377]
[1]
  Ki: 1790 nM
[2]
  Ki: 209 nM
D(2) dopamine receptor
  Ki: 0.13 nM and 0.215 nM
[3]
  Ki: 62 nM
[4]
  Ki: 110 nM
D(1A) dopamine receptor
  Ki: 1880 nM
[5]
  Ki: 2720 nM
